Legend:
SHV-5 = target: T1, SHV-5 (Klebsiella pneumoniae, UniProt P0A3M1); experiment: β-lactamase enzyme inhibition assay, SHV-5 (cefotaxime substrate); assay type: biochemical
T1 construct: made in house; host or cells: E. coli BL21(DE3)
In short: (§1)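 Native untagged β-lactamases were expressed in E. coli BL21(DE3), then purified by cation exchange and gel filtration. Enzyme was preincubated with inhibitor for 15 min at 37 °C before substrate was added. Imipenem (A300) served KPC-2 and cefotaxime (A260) served SHV-5. IC50 was taken from initial hydrolysis rates relative to no-inhibitor controls.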

KPC-2 = target: T2, KPC-2 (Klebsiella pneumoniae, UniProt Q9F663); experiment: β-lactamase enzyme inhibition assay, KPC-2 (imipenem substrate); assay type: biochemical; conditions: Class A; imipenem substrate, 300 nm; read-out: KPC-2
T2 construct: made in house; host or cells: E. coli BL21(DE3)
T2 sequence (Q9F663 25-293, looked up): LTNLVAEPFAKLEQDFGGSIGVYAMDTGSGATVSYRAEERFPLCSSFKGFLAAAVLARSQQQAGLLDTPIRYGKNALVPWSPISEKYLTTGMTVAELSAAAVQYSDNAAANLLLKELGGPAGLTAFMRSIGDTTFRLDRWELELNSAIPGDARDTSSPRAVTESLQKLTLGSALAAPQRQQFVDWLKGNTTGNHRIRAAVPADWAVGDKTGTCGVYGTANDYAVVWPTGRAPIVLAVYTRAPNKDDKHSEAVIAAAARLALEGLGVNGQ
In short: as §1

VIM-2 = target: T3, VIM-2 (Escherichia coli, UniProt Q5U7L7); experiment: β-lactamase enzyme inhibition assay, VIM-2 (nitrocefin substrate); assay type: biochemical; conditions: Class B; nitrocefin substrate, 486 nm; read-out: VIM-2
T3 construct: made in house; host or cells: E. coli BL21(DE3)
In short: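 Nitrocefin hydrolysis, read at 486 nm over 10 min, served as the measure of VIM-2 activity. The enzyme had been incubated with compound for 15 min at 37 °C before 100 μM substrate was added, and IC50 values were fitted from percent inhibition of the initial rate.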

AmpC = target: T4, AmpC (Enterobacter cloacae, UniProt P05364); experiment: β-lactamase enzyme inhibition assay, p99 AmpC (nitrocefin substrate); assay type: biochemical
T4 construct: made in house; host or cells: E. coli BL21(DE3)
T4 sequence (P05364 21-381): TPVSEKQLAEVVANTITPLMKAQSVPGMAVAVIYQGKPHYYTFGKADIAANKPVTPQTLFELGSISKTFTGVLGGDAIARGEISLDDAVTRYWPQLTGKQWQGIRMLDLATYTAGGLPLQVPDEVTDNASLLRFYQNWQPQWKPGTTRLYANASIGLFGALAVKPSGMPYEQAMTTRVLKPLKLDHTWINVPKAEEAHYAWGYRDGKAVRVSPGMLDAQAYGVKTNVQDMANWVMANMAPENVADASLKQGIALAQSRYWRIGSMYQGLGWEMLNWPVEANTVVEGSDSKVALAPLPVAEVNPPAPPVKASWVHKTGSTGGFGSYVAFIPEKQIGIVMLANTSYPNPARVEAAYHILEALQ
In short: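 Native untagged β-lactamases were expressed in E. coli BL21(DE3), then purified by cation exchange and gel filtration. Enzyme was preincubated with inhibitor for 15 min at 37 °C before substrate was added. IC50 was taken from initial hydrolysis rates relative to no-inhibitor controls.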

OXA-48 = OXA-48 (UniProt Q6XEC0); experiment: β-lactamase enzyme inhibition assay, Class D oxacillinase; assay type: biochemical; conditions: read-out: OXA-48
[1] = system: E. coli expressing the Class A Extended Spectrum Beta-Lactamase (ESBL) CTX-M-15; experiment: Broth microdilution MIC assay with ceftazidime, E. coli CTX-M-15; assay type: cell-based; conditions: Fixed CAZ (ceftazidime) 4 μg/mL; E. coli ESBL4 CTX-M-15
In short: (§2)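 Visual MIC readout of the test compound after 16-20 hours at 37° C, measured in the presence of a constant 4 μg/ml β-lactam. Compound concentrations spanned 16 to 0.125 μg/mL in 2-fold steps in cation-adjusted Mueller Hinton broth.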

[2] = system: E. cloacae expressing the Class C P99; experiment: Broth microdilution MIC assay with ceftazidime, E. cloacae P99; assay type: cell-based; conditions: Fixed CAZ (ceftazidime) 4 μg/mL; E. cl. 144200 p99 AmpC
In short: as §2

[3] = system: K. pneumoniae expressing the Class A carbapenemase KPC-2; experiment: Broth microdilution MIC assay with meropenem, K. pneumoniae KPC-2; assay type: cell-based; conditions: Fixed Mero (meropenem) 4 μg/mL; K. p. 156319 KPC-3
In short: as §2

[4] = system: P. aeruginosa expressing the Class B carbapenemase VIM-2; experiment: Broth microdilution MIC assay with meropenem, P. aeruginosa VIM-2; assay type: cell-based; conditions: Fixed Mero (meropenem) 4 μg/mL; P. aerug. 2775 VIM-2
In short: as §2

[5] = system: K. pneumoniae expressing the class A carbapenemase KPC-2 and the class B carbapenemase VIM-4; experiment: Broth microdilution MIC assay with meropenem, K. pneumoniae KPC-2 and VIM-4; assay type: cell-based; conditions: Fixed Mero (meropenem) 4 μg/mL; K. p. A-1797 KPC-2 VIM-4
In short: as §2

[6] = system: K. pneumoniae producing the Class D carbapenemase OXA-48; experiment: Broth microdilution MIC assay with meropenem, K. pneumoniae OXA-48; assay type: cell-based; conditions: Fixed Mero (meropenem) 4 μg/mL; K. p. 11978 OXA-48
In short: as §2

T1 sequence (P0A3M1 22-286): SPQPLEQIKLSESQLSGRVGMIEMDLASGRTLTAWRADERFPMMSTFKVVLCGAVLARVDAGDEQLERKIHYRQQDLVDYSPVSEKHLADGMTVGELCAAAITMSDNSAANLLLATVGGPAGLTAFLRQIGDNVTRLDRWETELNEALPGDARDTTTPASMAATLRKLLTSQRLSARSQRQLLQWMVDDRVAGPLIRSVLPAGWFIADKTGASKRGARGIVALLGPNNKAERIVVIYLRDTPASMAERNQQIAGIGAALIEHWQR

Structure (SMILES)	IC50 (SHV-5)	IC50 (KPC-2)	IC50 (VIM-2)	IC50 (AmpC)	IC50 (OXA-48)	MIC (μg/mL) of Exemplary Compounds in presence of fixed β-lactams: E. coli ESBL4 CTX-M-15 [1]	MIC (μg/mL) of Exemplary Compounds in presence of fixed β-lactams: E. cl. 144200 p99 AmpC [2]	MIC (μg/mL) of Exemplary Compounds in presence of fixed β-lactams: K. p. 156319 KPC-3 [3]	MIC (μg/mL) of Exemplary Compounds in presence of fixed β-lactams: P. aerug. 2775 VIM-2 [4]	MIC (μg/mL) of Exemplary Compounds in presence of fixed β-lactams: K. p. A-1797 KPC-2 VIM-4 [5]	MIC (μg/mL) of Exemplary Compounds in presence of fixed β-lactams: K. p. 11978 OXA-48 [6]
N=C(N)NCc1nc(CC(=O)N[C@H]2Cc3cccc(C(=O)O)c3OB2O)cs1 [Example 24, (R)-3-(2-(2-(guanidinomethyl)thiazol-4-yl)acetamido)-2-hydroxy-3,4-dihydro-2H-benzo[e][1,2]oxaborinine-8-carboxylic acid]	< 100 nM	< 100 nM	100 to 1000 nM	< 100 nM	100 to 1000 nM	C (C represents an MIC of <1 μg/mL)	C (C represents an MIC of <1 μg/mL)	B (B represents an MIC between 1 and 16 μg/mL inclusive)	B (B represents an MIC between 1 and 16 μg/mL inclusive)	B (B represents an MIC between 1 and 16 μg/mL inclusive)	B (B represents an MIC between 1 and 16 μg/mL inclusive)
N#Cc1ncn(CC(=O)N[C@H]2Cc3cccc(C(=O)O)c3OB2O)n1 [Example 25, (R)-3-(2-(3-cyano-1H-1,2,4-triazol-1-yl)acetamido)-2-hydroxy-3,4-dihydro-2H-benzo[e][1,2]oxaborinine-8-carboxylic acid]	< 100 nM	< 100 nM	100 to 1000 nM	< 100 nM	100 to 1000 nM	C (C represents an MIC of <1 μg/mL)	C (C represents an MIC of <1 μg/mL)	B (B represents an MIC between 1 and 16 μg/mL inclusive)	B (B represents an MIC between 1 and 16 μg/mL inclusive)	A (A represents an MIC>16 μg/mL)	B (B represents an MIC between 1 and 16 μg/mL inclusive)
CNCc1cn(CC(=O)N[C@H]2Cc3cccc(C(=O)O)c3OB2O)nn1 [Example 26, (R)-2-hydroxy-3-(2-(4-((methylamino)methyl)-1H-1,2,3-triazol-1-yl)acetamido)-3,4-dihydro-2H-benzo[e][1,2]oxaborinine-8-carboxylic acid]	< 100 nM	100 to 1000 nM	< 100 nM	< 100 nM	100 to 1000 nM	C (C represents an MIC of <1 μg/mL)	C (C represents an MIC of <1 μg/mL)	B (B represents an MIC between 1 and 16 μg/mL inclusive)	B (B represents an MIC between 1 and 16 μg/mL inclusive)	C (C represents an MIC of <1 μg/mL)	B (B represents an MIC between 1 and 16 μg/mL inclusive)
CCN(CC)Cc1cn(CC(=O)N[C@H]2Cc3cccc(C(=O)O)c3OB2O)nn1 [Example 27, (R)-3-(2-(4-((diethylamino)methyl)-1H-1,2,3-triazol-1-yl)acetamido)-2-hydroxy-3,4-dihydro-2H-benzo[e][1,2]oxaborinine-8-carboxylic acid]	< 100 nM	< 100 nM	100 to 1000 nM	< 100 nM	100 to 1000 nM	C (C represents an MIC of <1 μg/mL)	C (C represents an MIC of <1 μg/mL)	B (B represents an MIC between 1 and 16 μg/mL inclusive)	B (B represents an MIC between 1 and 16 μg/mL inclusive)	B (B represents an MIC between 1 and 16 μg/mL inclusive)	B (B represents an MIC between 1 and 16 μg/mL inclusive)
O=C(Cn1cc(-c2cccs2)nn1)N[C@H]1Cc2cccc(C(=O)O)c2OB1O [Example 28, (R)-2-hydroxy-3-(2-(4-(thiophen-2-yl)-1H-1,2,3-triazol-1-yl)acetamido)-3,4-dihydro-2H-benzo[e][1,2]oxaborinine-8-carboxylic acid]	< 100 nM	< 100 nM	100 to 1000 nM	< 100 nM	100 to 1000 nM	C (C represents an MIC of <1 μg/mL)	C (C represents an MIC of <1 μg/mL)	B (B represents an MIC between 1 and 16 μg/mL inclusive)	B (B represents an MIC between 1 and 16 μg/mL inclusive)	A (A represents an MIC>16 μg/mL)	B (B represents an MIC between 1 and 16 μg/mL inclusive)
O=C(Cn1cc(-c2ccsc2)nn1)N[C@H]1Cc2cccc(C(=O)O)c2OB1O [Example 29, (R)-2-hydroxy-3-(2-(4-(thiophen-3-yl)-1H-1,2,3-triazol-1-yl)acetamido)-3,4-dihydro-2H-benzo[e][1,2]oxaborinine-8-carboxylic acid]	< 100 nM	< 100 nM	100 to 1000 nM	< 100 nM	100 to 1000 nM	C (C represents an MIC of <1 μg/mL)	C (C represents an MIC of <1 μg/mL)	B (B represents an MIC between 1 and 16 μg/mL inclusive)	B (B represents an MIC between 1 and 16 μg/mL inclusive)	B (B represents an MIC between 1 and 16 μg/mL inclusive)	B (B represents an MIC between 1 and 16 μg/mL inclusive)
NCc1cn(CCC(=O)N[C@H]2Cc3cccc(C(=O)O)c3OB2O)nn1 [Example 30, (R)-3-(3-(4-(aminomethyl)-1H-1,2,3-triazol-1-yl)propanamido)-2-hydroxy-3,4-dihydro-2H-benzo[e][1,2]oxaborinine-8-carboxylic acid]	< 100 nM	< 100 nM	100 to 1000 nM	< 100 nM	100 to 1000 nM	C (C represents an MIC of <1 μg/mL)	C (C represents an MIC of <1 μg/mL)	C (C represents an MIC of <1 μg/mL)	B (B represents an MIC between 1 and 16 μg/mL inclusive)	B (B represents an MIC between 1 and 16 μg/mL inclusive)	B (B represents an MIC between 1 and 16 μg/mL inclusive)
COc1c(C[C@H](NC(=O)Cn2cc(CN)nn2)B(O)O)cccc1C(=O)O [Example 31, (R)-3-(2-(2-(4-(aminomethyl)-1H-1,2,3-triazol-1-yl)acetamido)-2-boronoethyl)-2-methoxybenzoic acid]	< 100 nM	< 100 nM	100 to 1000 nM	100 to 1000 nM	1000 to 10000 nM	B (B represents an MIC between 1 and 16 μg/mL inclusive)	C (C represents an MIC of <1 μg/mL)	B (B represents an MIC between 1 and 16 μg/mL inclusive)	C (C represents an MIC of <1 μg/mL)	B (B represents an MIC between 1 and 16 μg/mL inclusive)	A (A represents an MIC>16 μg/mL)

From US11046716B2, “Beta-lactamase inhibitors” (priority 2015, dated 2021)
